The source of these data is patent US9700042B2, “Nanoformulation of musk-derived bioactive ingredients for nanocosmetic applications” (priority 2014, dated 2017).

This test has as its system tested microorganisms fungi and bacteria. Nature of the test: Anti-microbial activities (disc diffusion, all test organisms). It counts as cell-based. To be noted: filter paper discs. As to the method: Pathogenic Fungi: Aspergillus niger, Aspergillus fumigatus, Aspergillus flavus, Fusarium oxysporum and Candida albicans were cultured on sabaroud dextrous agar media (Oxioid CM 41) at 25° C.
Pathogenic bacteria: Staphylococcus aureus and Pseudomonas aeroginosa were cultured on Mueller Hinton media (Oxioid CM 41) at 37° C.
Biological activity: Antimicrobial activities of the 3-hydroxyl p-Anisaldehyde (C8H8O3) and p-Hydroxy-acetophenone (C8H8O2) compounds were tested against the fungal species Aspergillus niger, Aspergillus fumigatus, Aspergillus flavus, Fusarium oxysporum and Candida albicans. […]
Antifungal activities: The agar disc diffusion method was used to evaluate the antifungal activities of the tested compounds (Bauer, A.W., et al., Antibiotic susceptibility testing by a standard single disk diffusion method, Amer. J. Clin. Pathol. 45:493-496 (1966)). […] The diameter of the inhibition zones were measured in millimeters after 4 days at 25±2° C. […]
Antibacterial activities: Antibacterial activities of the tested compounds were employed by used the agar disc diffusion method Hasenekoglu (1990). Suspension of the tested bacteria (10^6 CFU/μl ,O.D was measured calorimetry using spectrophotometer (Spectro, labomed, Inc.) at […]) were spread on Mueller Hinton Agar (Oxioid). […] The diameter of the inhibition zones were measured in millimeters after 24 h at 37° C. […]
In general terms: A growth-free zone around the sample is the usual read-out of agar diffusion tests.

As to `CC(=O)c1ccc(O)cc1` [p-Hydroxyacetophenone], the “Inhibition of growth of tested microorganisms (clear zones around discs)” value is given as “have the ability to inhibit the growth”.
